Legend:
[1] = Cancer associated VTE mouse model; format: in vivo; conditions: 200 mg/kg qd IP for three days
[2] = Venous thromboembolism (VTE) mouse model; format: in vivo; conditions: 200 mg/kg qd IP for three days

## Cc1cc(CSc2ccccc2C(=O)NCCNc2ccc(C(F)(F)F)cc2[N+](=O)[O-])on1 [1Q]
[1]
  reduction in thrombus size: 45%
[2]
  reduction in thrombus size: approximately 37.3%

— patent publication US10851096B2, “Aryl and heteroaryl amides for use as anti-proliferative, anti-thrombotic, and anti-viral agents” (Rutgers, The State University of New Jersey, priority 2016, dated 2020)
